Source: patent US20150328245A1, “Agents for Eliminating Tumour-Initiating Cells” (priority 2012, published 2015)

Tests used:
Assay type in all cases: cell-based
MDAMB231 = test: In vitro soft agar colony forming growth assay; details: Homo sapiens, MDA-MB-231, 168 h; MDAMB231, soft agar, one week; read-out: IC 50
Method: (§1) The Soft Agar Assay for Colony Formation is considered the most stringent assay for detecting malignant transformation of cells. In this assay the cells are cultured in medium with low percentage of agar.
(§2) An exemplary procedure for the assay follows.

T47D = test: In vitro soft agar colony forming growth assay; details: Homo sapiens, 168 h, one week
Method: as §1, §2

DU145 = test: In vitro soft agar colony forming growth assay; details: Homo sapiens, DU-145, 168 h, one week
Method: as §1, §2

LNCaP = test: In vitro soft agar colony forming growth assay; details: Homo sapiens, 168 h, one week
Method: as §1, §2

PC3 = test: In vitro soft agar colony forming growth assay; details: Homo sapiens, PC-3, 168 h, one week
Method: as §1, §2

MCF-7 = test: In vitro soft agar colony forming growth assay; details: Homo sapiens, MCF7, 168 h; MCF-7, soft agar, one week
Method: as §1, §2

breast cancer cells T47D = test: In vitro 3D primary sphere forming stem cell assay
Method: (§3) This assay measures the ability of cancer stem cells to form spheres in a serum free media where the spheres are in a suspended form. Through this assay we evaluated the potency of the compounds of the invention to kill cancer stem cells in comparison with the known chemotherapeutic agent Cisplatin.
(§4) An exemplary procedure for the assay follows. Cells were grown in three dimensions on a plastic substrate, harvested in suspension in serum-free media, then the cells in the sample were trypsinized and a single cell suspension was formed by passing through a cell strainer. The cells were diluted according to the predetermined plating efficiency for the cell line being studied by suspending the cells in stem cell culture medium. 100 uL of this suspension was added into each well of a 96 well suspension plate, and the plate was incubated at 37 degrees Celsius in 5% CO2 atmosphere for 24 hours, then 2 uL of appropriate concentrations of the compounds of the invention and cisplatin were added into each respective well along with 100 uL of stem cell culture medium, and the plates were incubated at 37 degrees Celsius under 5% CO2 atmosphere for 72 hours. 2.5 uL of the compounds of the invention and cisplatin were added to each respective well along with 50 uL of stem cell culture medium and then the plates were incubated at 37 degrees Celsius under 5% CO2 atmosphere for 72 hours. 3 uL of appropriate concentrations of the compounds of the invention and cisplatin were added to each respective well along with 50 uL of stem cell culture medium and then the plates were incubated at 37 degrees Celsius under 5% CO2 atmosphere for 72 hours, then the spheres formed were observed under a microscope then counted and scored by size.
(§5) Results of the in vitro 3D sphere forming stem cell assay are set forth in a tabular manner. The number in each box is the total number of spheres formed in the presence of either cisplatin or compound I-2 or compound I-3 at each drug concentration. GC refers to a growth control performed in the absence of drug or solvent (DMSO). GCD refers to a growth control performed in the absence of drug, but in the presence of DMSO.

[1] = system: prostate cancer cells PC3; test: In vitro 3D primary sphere forming stem cell assay
Method: as §3, §4, §5

[2] = system: prostate cancer cells LNCaP; test: In vitro 3D primary sphere forming stem cell assay
Method: as §3, §4, §5

[3] = system: prostate cancer cells DU145; test: In vitro 3D primary sphere forming stem cell assay
Method: as §3, §4, §5

[4] = system: breast cancer cells MDA MB 231; test: In vitro 3D primary sphere forming stem cell assay
Method: as §3, §4, §5

Compound: COc1cc2c(OC3OCC(OC)C(OC)C3O)c3c(c(-c4ccc5c(c4)OCO5)c2cc1OC)C(=O)OC3 (stereo not drawn) [I-2]
- IC50 (MDAMB231): 3630 nM
- IC50 (T47D): 2390 nM
- IC50 (DU145): 3160 nM
- IC50 (LNCaP): 700 nM
- IC50 (PC3): 260 nM
- IC50 (MCF-7): 620 nM
- numbers of primary spheres formed, compared with cisplatin (breast cancer cells T47D; T47D): significantly less
- # of 3D Primary Spheres Formed of Cells T47D (±SD) (breast cancer cells T47D; final conc. 0.125 μM): 84(±8)
- # of 3D Primary Spheres Formed of Cells T47D (±SD) (breast cancer cells T47D; final conc. 1.25 μM): 34(±5)
- # of 3D Primary Spheres Formed of Cells T47D (±SD) (breast cancer cells T47D; final conc. 12.5 μM): 28(±7)
- # of 3D Primary Spheres Formed of Cells T47D (±SD) (breast cancer cells T47D; final conc. 125 μM): 14(±4)
- # of 3D Primary Spheres Formed of Cells T47D (±SD) (breast cancer cells T47D; final conc. 1250 μM): 0(±0)
- numbers of primary spheres formed, compared with cisplatin ([1]; PC3): significantly less
- # of 3D Primary Spheres Formed of Cells PC3 (±SD) ([1]; final conc. 0.125 μM): 81(±9)
- # of 3D Primary Spheres Formed of Cells PC3 (±SD) ([1]; final conc. 1.25 μM): 69(±3)
- # of 3D Primary Spheres Formed of Cells PC3 (±SD) ([1]; final conc. 12.5 μM): 63(±8)
- # of 3D Primary Spheres Formed of Cells PC3 (±SD) ([1]; final conc. 125 μM): 31(±6)
- # of 3D Primary Spheres Formed of Cells PC3 (±SD) ([1]; final conc. 1250 μM): 0(±0)
- numbers of primary spheres formed, compared with cisplatin ([2]; LNCaP): significantly less
- # of 3D Primary Spheres Formed of Cells LNCaP (±SD) ([2]; final conc. 0.125 μM): 98(±17)
- # of 3D Primary Spheres Formed of Cells LNCaP (±SD) ([2]; final conc. 1.25 μM): 49(±6)
- # of 3D Primary Spheres Formed of Cells LNCaP (±SD) ([2]; final conc. 12.5 μM): 6(±2)
- # of 3D Primary Spheres Formed of Cells LNCaP (±SD) ([2]; final conc. 125 μM): 0(±0)
- # of 3D Primary Spheres Formed of Cells LNCaP (±SD) ([2]; final conc. 1250 μM): 0(±0)
- numbers of primary spheres formed, compared with cisplatin ([3]; DU145): significantly less
- # of 3D Primary Spheres Formed of Cells DU145 (±SD) ([3]; final conc. 0.125 μM): 53(±5)
- # of 3D Primary Spheres Formed of Cells DU145 (±SD) ([3]; final conc. 1.25 μM): 41(±4)
- # of 3D Primary Spheres Formed of Cells DU145 (±SD) ([3]; final conc. 12.5 μM): 18(±7)
- # of 3D Primary Spheres Formed of Cells DU145 (±SD) ([3]; final conc. 125 μM): 7(±1)
- # of 3D Primary Spheres Formed of Cells DU145 (±SD) ([3]; final conc. 1250 μM): 0(±0)
- numbers of primary spheres formed, compared with cisplatin ([4]; MDA MB 231): significantly less
- # of 3D Primary Spheres Formed of Cells MDA MB231 (±SD) ([4]; final conc. 0.125 μM): 60(±9)
- # of 3D Primary Spheres Formed of Cells MDA MB231 (±SD) ([4]; final conc. 1.25 μM): 32(±5)
- # of 3D Primary Spheres Formed of Cells MDA MB231 (±SD) ([4]; final conc. 12.5 μM): 14(±2)
- # of 3D Primary Spheres Formed of Cells MDA MB231 (±SD) ([4]; final conc. 125 μM): 0(±0)
- # of 3D Primary Spheres Formed of Cells MDA MB231 (±SD) ([4]; final conc. 1250 μM): 0(±0)
